# Test results reported in article PMC7038226, “Discovery of Novel Inhibitors Targeting Multi-UDP-hexose Pyrophosphorylases as Anticancer Agents” (Molecules, 2020).
# pIC50, pKi: −log10 of the molar value.
# Columns and labels:
# Type in all cases: biochemical
# UGP2 [1] = biological target: T1, UGP2 (Homo sapiens, UniProt Q16851); assay: enzyme inhibition assay; details: residual activity, not per cent inhibition; inhibitor 25 µM printed for GAL-012, assumed for analogue; 5 min preincubation
# T1 construct: recombinant, expressed in E. coli HMS174(DE3), Ni-NTA purified; plasmid from earlier work
# T1 sequence (Q16851 1-508): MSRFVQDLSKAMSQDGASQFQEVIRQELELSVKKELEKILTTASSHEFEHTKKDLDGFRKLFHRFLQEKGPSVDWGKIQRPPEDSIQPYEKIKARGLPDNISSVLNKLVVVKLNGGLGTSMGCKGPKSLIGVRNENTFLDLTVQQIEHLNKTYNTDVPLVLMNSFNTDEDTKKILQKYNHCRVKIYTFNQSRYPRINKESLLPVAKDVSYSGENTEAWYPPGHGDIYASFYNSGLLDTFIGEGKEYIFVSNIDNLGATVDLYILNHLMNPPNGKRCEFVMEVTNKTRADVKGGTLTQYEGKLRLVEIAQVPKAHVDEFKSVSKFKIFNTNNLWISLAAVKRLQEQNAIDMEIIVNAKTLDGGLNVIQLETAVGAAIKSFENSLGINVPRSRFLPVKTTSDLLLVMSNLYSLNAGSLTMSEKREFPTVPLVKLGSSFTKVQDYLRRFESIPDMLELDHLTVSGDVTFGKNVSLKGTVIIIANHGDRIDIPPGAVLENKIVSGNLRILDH
# Description: enzyme inhibition assay on UGP2
# GALT [2] = biological target: T2, GALT (Homo sapiens, UniProt P07902); assay: enzyme inhibition assay; details: residual activity, not per cent inhibition; inhibitor 25 µM printed for GAL-012, assumed for analogue; 5 min preincubation
# T2 construct: recombinant, expressed in E. coli HMS174(DE3), Ni-NTA purified; plasmid from earlier work
# T2 sequence (P07902 whole entry): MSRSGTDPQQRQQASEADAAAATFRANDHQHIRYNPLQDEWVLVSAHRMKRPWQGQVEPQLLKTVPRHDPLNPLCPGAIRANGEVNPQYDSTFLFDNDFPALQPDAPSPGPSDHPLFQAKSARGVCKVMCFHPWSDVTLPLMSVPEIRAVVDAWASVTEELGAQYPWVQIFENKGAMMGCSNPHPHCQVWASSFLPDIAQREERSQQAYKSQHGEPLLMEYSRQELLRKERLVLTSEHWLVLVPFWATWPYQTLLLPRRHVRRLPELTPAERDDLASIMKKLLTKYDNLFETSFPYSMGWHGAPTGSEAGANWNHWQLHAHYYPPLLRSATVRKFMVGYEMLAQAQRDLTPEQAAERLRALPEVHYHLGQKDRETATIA
# Description: enzyme inhibition assay on GALT
# UGP2 [3] = biological target: T1, UGP2; assay: enzyme inhibition assay
# Description: enzyme inhibition assay on UGP2 | UDP-glucose pyrophosphorylase (UGP2)
# AGX1/UAP1 = biological target: T3, AGX1/UAP1 (Homo sapiens, UniProt Q16222); assay: enzyme inhibition assay; details: one value stated for GALT, UGP2 and AGX1/UAP1 together
# T3 construct: full-length, cDNA from HepG2 cells, pET30A(+) in E. coli HMS174(DE3), Ni-NTA purified
# T3 sequence (Q16222 1-505 isoform Q16222-2): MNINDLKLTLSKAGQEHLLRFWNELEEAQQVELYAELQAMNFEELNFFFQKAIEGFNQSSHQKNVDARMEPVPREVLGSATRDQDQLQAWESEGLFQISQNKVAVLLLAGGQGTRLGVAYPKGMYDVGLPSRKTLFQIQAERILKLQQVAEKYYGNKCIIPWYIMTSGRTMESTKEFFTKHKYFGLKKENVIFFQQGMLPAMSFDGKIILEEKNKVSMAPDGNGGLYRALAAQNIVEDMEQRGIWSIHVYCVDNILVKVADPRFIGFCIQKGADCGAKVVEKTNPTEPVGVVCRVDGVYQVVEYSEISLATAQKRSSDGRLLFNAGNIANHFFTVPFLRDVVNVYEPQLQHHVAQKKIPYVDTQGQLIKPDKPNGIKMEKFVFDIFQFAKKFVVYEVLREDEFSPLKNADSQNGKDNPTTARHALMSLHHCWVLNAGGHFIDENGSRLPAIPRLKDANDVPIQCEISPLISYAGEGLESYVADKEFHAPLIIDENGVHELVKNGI
# GALT [4] = biological target: T2, GALT; assay: enzyme inhibition assay
# Description: enzyme inhibition assay on GALT | GAL-012, that inhibit a small family of UDP-hexose pyrophosphorylases-galactose pyro-phosphorylase (GALT)
# GALT [5] = biological target: T2, GALT; assay: initial velocities, Lineweaver-Burk
Enzyme Inhibitory Activity / UGP2 (UGP2 [1]) [%],Enzyme Inhibitory Activity / GALT (GALT [2]) [%],pIC50 (UGP2 [3]),pIC50 (AGX1/UAP1),pIC50 (GALT [4]),pKi (GALT [5]),Compound
63.8 ± 4,63.4 ± 2.3,,,,,CN(C)/C=C/C(=O)c1ccc2c(c1)C(C)(C)C(=O)N2C [GAL-012-2]
,,4.52,4.52,4.52,~4.52,CN1C(=O)C(C)(C)c2cc(-c3ccnc(N)n3)ccc21 [GAL-012]
